# Laboratory results: PMC7587970, “Lanostane Triterpenoids from the Fruiting Bodies of Fomes officinalis and Their Anti-Inflammatory Activities” (Molecules, 2020)
# pIC50: −log10 of the molar value. Read-outs that look alike come from different tables or passages of the source.
# Target: T1, cyclooxygenase (COX-2) (Ovis aries, UniProt P79208)
# T1 construct: gene PTGS2
# T1 sequence (P79208 17-603): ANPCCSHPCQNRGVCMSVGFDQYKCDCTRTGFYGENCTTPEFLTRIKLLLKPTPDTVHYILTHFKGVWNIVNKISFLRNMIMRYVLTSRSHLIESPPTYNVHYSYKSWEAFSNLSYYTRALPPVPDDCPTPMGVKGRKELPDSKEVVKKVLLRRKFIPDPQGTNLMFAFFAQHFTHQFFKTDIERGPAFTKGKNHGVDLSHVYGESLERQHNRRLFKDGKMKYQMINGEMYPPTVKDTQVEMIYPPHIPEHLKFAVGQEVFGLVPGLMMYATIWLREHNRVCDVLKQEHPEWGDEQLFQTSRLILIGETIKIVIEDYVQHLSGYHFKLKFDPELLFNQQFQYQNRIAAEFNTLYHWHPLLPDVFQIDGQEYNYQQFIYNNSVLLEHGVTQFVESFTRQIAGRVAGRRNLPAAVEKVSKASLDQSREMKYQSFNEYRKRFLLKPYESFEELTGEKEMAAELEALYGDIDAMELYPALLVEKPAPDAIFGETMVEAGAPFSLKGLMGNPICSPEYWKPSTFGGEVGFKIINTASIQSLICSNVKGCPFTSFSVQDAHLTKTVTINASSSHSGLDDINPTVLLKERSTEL
# Assay: COX colorimetric inhibitor screening assay kit (Cayman), ovine recombinant COX-2
# Assay type: biochemical
compound,measurement,setting,value
"COC(=O)CC(=O)O[C@@H]1CC[C@]2(C)C3=C(C(=O)C[C@H]2C1(C)C)[C@]1(C)CC[C@H]([C@H](C)C[C@@H]2OC(=O)C(C)=C2C)[C@@]1(C)[C@H](O)C3 [compound 5, officimalonic acid M]",pIC50,read-out: IC50,4.37
"C[C@@H]1C[C@]2(OC[C@]34[C@H](O)C=C5C(=CC[C@H]6C(C)(C)[C@H](OC(=O)CC(=O)O)CC[C@]56C)[C@]3(C)CC[C@H]14)OC(=O)[C@@H](C)[C@@H]2C [compound 3, officimalonic acid K]",pIC50,read-out: IC50,4.52
"COc1ccc2cc([C@H](C)C(=O)O)ccc2c1 [naproxen, reference compound]",pIC50,,5.09
